Measurements taken from US9144239B2, “Macrocyclic picolinamides as fungicides” (DOW AGROSCIENCES LLC, priority 2012, dated 2015).
Read-outs that look alike come from different tables or passages of the source.

Experiments:
Format in all cases: in vivo
[1] = test system: Mycosphaerella graminicola; anamorph: Septoria tritici; experiment: Fungicidal activity: leaf blotch of wheat (SEPTTR), wheat seedlings; conditions: Zymoseptoria tritici, 100 ppm, wheat
Outline: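 Percent control derives from disease severity on treated versus untreated first leaves, rated 0–100% when symptoms were fully expressed on untreated plants. Yuma seedlings were inoculated with S. tritici spores either before or after spraying to run-off. The spray was acetone solution diluted 1:9 in water with 110 ppm Triton X-100. Infection took place in 100% RH dew chambers, then a 20 °C greenhouse.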

[2] = test system: Puccinia triticina; synonym: Puccinia recondita f. sp. tritici; experiment: Fungicidal activity: wheat brown rust (PUCCRT), wheat seedlings; conditions: 100 ppm, wheat
Outline: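 Wheat (Yuma) seedlings at first-leaf stage, inoculated with Puccinia triticina spores before or after treatment, held overnight in dark dew room at 22° C, 100% RH, then greenhouse at 24° C. Acetone solutions diluted with nine volumes water containing 110 ppm Triton X-100, sprayed to run-off. Percent disease control derived from severity (0–100%) relative to untreated plants.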

[3] = test system: Magnaporthe grisea; anamorph: Pyricularia oryzae; experiment: whole plant or invertebrate; conditions: 24 h, read-out: Disease Control PYRIOR 1 DP
[4] = test system: Alternaria solani; experiment: Fungicidal activity: tomato early blight (ALTESO); conditions: 24 h, 1 Day Protectant, read-out: Disease Control ALTESO 1DP
Procedure: Technical grades of materials were dissolved in acetone, which were then mixed with nine volumes of water containing 110 ppm Triton X-100. The fungicide solutions were applied onto wheat seedlings using an automated booth sprayer to run-off. All sprayed plants were allowed to air dry prior to further handling. Wheat plants (variety Yuma) were grown from seed in a greenhouse in 50% mineral soil/50% soil-less Metro mix until the first leaf was fully emerged, with 7-10 seedlings per pot. These plants were inoculated with an aqueous spore suspension of Septoria tritici either prior to or after fungicide treatments. After inoculation the plants were kept in 100% relative humidity (one day in a dark dew chamber followed by two to three days in a lighted dew chamber at 20° C.) to permit spores to germinate and infect the leaf. The plants were then transferred to a greenhouse set at 20° C. for disease to develop. When disease symptoms were fully expressed on the 1st leaves of untreated plants, infection levels were assessed on a scale of 0 to 100 percent disease severity. Percent disease control was calculated using the ratio of disease severity on treated plants relative to untreated plants. Evaluation of Fungicidal Activity: Tomato Early Blight (Alternaria solani; Bayer Code […]) Tomato plants (variety Outdoor girl) were propagated in soil-less Metro mix, with each pot having one plant, and used when 12 to 14 days old. Test plants were inoculated with an aqueous spore suspension of Alternaria solani 24 hr after fungicide treatments. After inoculation the plants were kept in 100% relative humidity (one day in a dark dew chamber followed by two to three days in a lighted dew chamber at 20° C.) to permit spores to germinate and infect the leaf. The plants were then transferred to a growth room at 22° C. for disease to develop. Fungicide formulation, application and disease assessment on the sprayed leaves followed the procedures as described in the Example A.

[5] = test system: Blumeria graminis f.sp. tritici; synonym: Erysiphe graminis f.sp. tritici; experiment: Fungicidal activity: wheat powdery mildew (ERYSGT); conditions: 24 h, 1 Day Protectant, read-out: Disease Control ERYSGT 1 DP
Procedure: Technical grades of materials were dissolved in acetone, which were then mixed with nine volumes of water containing 110 ppm Triton X-100. The fungicide solutions were applied onto wheat seedlings using an automated booth sprayer to run-off. All sprayed plants were allowed to air dry prior to further handling. Wheat plants (variety Yuma) were grown from seed in a greenhouse in 50% mineral soil/50% soil-less Metro mix until the first leaf was fully emerged, with 7-10 seedlings per pot. These plants were inoculated with an aqueous spore suspension of Septoria tritici either prior to or after fungicide treatments. After inoculation the plants were kept in 100% relative humidity (one day in a dark dew chamber followed by two to three days in a lighted dew chamber at 20° C.) to permit spores to germinate and infect the leaf. The plants were then transferred to a greenhouse set at 20° C. for disease to develop. When disease symptoms were fully expressed on the 1st leaves of untreated plants, infection levels were assessed on a scale of 0 to 100 percent disease severity. Percent disease control was calculated using the ratio of disease severity on treated plants relative to untreated plants. Evaluation of Fungicidal Activity: Wheat Powdery Mildew (Blumeria graminis f.sp. tritici; Synonym: Erysiphe graminis f.sp. tritici; Bayer Code […]) Wheat plants (variety Yuma) were grown from seed in a greenhouse in 50% mineral soil/50% soil-less Metro mix until the first leaf was fully emerged, with 7-10 seedlings per pot. These plants were inoculated by dusting with infected stock plants 24 hr after fungicide treatments. After inoculation the plants were kept in a greenhouse set at 20° C. for disease to develop. Fungicide formulation, application and disease assessment on the sprayed leaves followed the procedures as described in the Example A.

[6] = 24 h, 1 Day Protectant, read-out: Disease Control SEPTTR 1DP
[7] = 72 h, 3 Day Curative, read-out: Disease Control SEPTTR 3DC
[8] = 24 h, 1 Day Protectant, read-out: Disease Control PUCCRT 1DP
[9] = 72 h, 3 Day Curative, read-out: Disease Control PUCCRT 3DC

Row | Structure (SMILES) | pest or weed control at 100 ppm [1, 6] [%] | pest or weed control at 100 ppm [1, 7] [%] | pest or weed control at 100 ppm [2, 8] [%] | pest or weed control at 100 ppm [2, 9] [%] | pest or weed control at 100 ppm [3] [%] | pest or weed control at 100 ppm [4] [%] | pest or weed control at 100 ppm [5] [%]
1 | CCCO[C@H]1[C@H](C)OC(=O)[C@@H](NC(=O)c2nccc(OC)c2OCOC(C)=O)COC[C@@H]1Oc1ccccc1 [Compound 222] | 80 to 100 | 80 to 100 | 80 to 100 | 80 to 100 | 80 to 100 | 0 to 80 | –
2 | COc1ccnc(C(=O)N[C@H]2COC[C@H](Oc3ccccc3)[C@@H](OCC(C)C)[C@H](C)OC2=O)c1OCOC(C)=O [Compound 86] | 80 to 100 | 80 to 100 | 80 to 100 | 80 to 100 | 80 to 100 | 80 to 100 | 80 to 100
3 | CCC(C)(C)O[C@H]1COC[C@H](NC(=O)c2nccc(OC)c2OCOC(C)=O)C(=O)O[C@@H](C)[C@@H]1OCC(C)C [Compound 78] | 80 to 100 | 80 to 100 | 80 to 100 | 80 to 100 | 80 to 100 | 0 to 80 | 80 to 100
4 | COc1ccnc(C(=O)N[C@H]2COC[C@H](OC)[C@@H](OC)[C@H](C)OC2=O)c1OCOC(C)=O [Compound 65] | – | 0 to 80 | – | 0 to 80 | – | – | –
5 | COc1ccnc(C(=O)N[C@H]2COC[C@H](OCC(C)C)[C@@H](OCC(C)C)[C@H](C)OC2=O)c1OCOC(C)=O [Compound 3, (2-((3S,7S,8S,9S)-7,8-diisobutoxy-9-methyl-2-oxo-1,5-dioxonan-3-ylcarbamoyl)-4-methoxypyridin-3-yloxy)methyl] | 80 to 100 | 80 to 100 | 80 to 100 | 80 to 100 | 80 to 100 | 0 to 80 | 80 to 100
6 | COc1ccnc(C(=O)NC2COC[C@H](OCc3ccccc3)[C@@H](OCc3ccccc3)[C@H](C)OC2=O)c1OCOC(C)=O (stereo partly shown) [Compound 12] | 80 to 100 | 80 to 100 | 80 to 100 | 80 to 100 | 80 to 100 | 0 to 80 | 0 to 80
7 | CCCCO[C@H]1COC[C@H](NC(=O)c2nccc(OC)c2OCOC(C)=O)C(=O)O[C@@H](C)[C@@H]1OCC(F)F [Compound 55] | 80 to 100 | 80 to 100 | 80 to 100 | 80 to 100 | 80 to 100 | – | 0 to 80
8 | COc1ccnc(C(=O)N[C@H]2COC[C@H](OCCCC(F)(F)F)[C@@H](OCCCC(F)(F)F)[C@H](C)OC2=O)c1OCOC(C)=O [Compound 68] | 80 to 100 | 80 to 100 | 80 to 100 | 80 to 100 | 80 to 100 | 0 to 80 | 0 to 80
9 | COc1ccnc(C(=O)N[C@H]2COC[C@H](Oc3ccc(F)cc3)[C@@H](Oc3ccc(F)cc3)[C@H](C)OC2=O)c1OCOC(C)=O [Compound 231] | – | – | – | – | 80 to 100 | 0 to 80 | –
10 | COc1ccnc(C(=O)N[C@H]2COC[C@H](OCC(C)C)[C@@H](OC3CCCCC3)[C@H](C)OC2=O)c1OCOC(C)=O [Compound 77] | 80 to 100 | 80 to 100 | 80 to 100 | 80 to 100 | 80 to 100 | 0 to 80 | 0 to 80
11 | COc1ccnc(C(=O)N[C@H]2COC[C@H](OC(=O)C(C)C)[C@@H](OC(=O)C(C)C)[C@H](C)OC2=O)c1OCOC(C)=O [Compound 57] | 80 to 100 | 80 to 100 | 80 to 100 | 80 to 100 | 80 to 100 | 0 to 80 | 0 to 80
12 | COc1ccnc(C(=O)N[C@H]2COC[C@H](OCC(C)C)[C@@H](OCC(C)C)[C@H](C)OC2=O)c1OCOC(=O)C(C)C [Compound 2] | 80 to 100 | 80 to 100 | 80 to 100 | 80 to 100 | – | – | –
13 | CCCCO[C@H]1COC[C@H](NC(=O)c2nccc(OC)c2OCOC(C)=O)C(=O)O[C@@H](C)[C@@H]1OCCOC [Compound 54] | 0 to 80 | 0 to 80 | 80 to 100 | 80 to 100 | 0 to 80 | – | 0 to 80
14 | COc1ccnc(C(=O)N[C@H]2COC[C@H](Oc3ccc(F)cc3)[C@@H](Oc3ccc(F)cc3)[C@H](C)OC2=O)c1OC(C)=O [Compound 229, 2-(((3S,7S,8S,9S)-7,8-bis(4-fluorophenoxy)-9-methyl-2-oxo-1,5-dioxonan-3-yl)carbamoyl)-4-methoxypyridin-3-yl acetate] | – | – | – | – | 80 to 100 | 0 to 80 | –
15 | CCCO[C@H]1COC[C@H](NC(=O)c2nccc(OC)c2OCOC(C)=O)C(=O)O[C@@H](C)[C@@H]1Oc1ccccc1 [Compound 221] | 80 to 100 | 80 to 100 | 80 to 100 | 80 to 100 | 80 to 100 | – | –
16 | COc1ccnc(C(=O)N[C@H]2COC[C@H](Oc3ccccc3)[C@@H](Oc3ccccc3)[C@H](C)OC2=O)c1OCOC(C)=O [Compound 84] | 80 to 100 | 80 to 100 | 80 to 100 | 80 to 100 | 80 to 100 | 0 to 80 | 0 to 80
17 | COc1ccnc(C(=O)N[C@H]2COC[C@H](OCCCc3ccccc3)[C@@H](OCCCc3ccccc3)[C@H](C)OC2=O)c1OCOC(C)=O [Compound 60] | 80 to 100 | 0 to 80 | 80 to 100 | 80 to 100 | 80 to 100 | 0 to 80 | 0 to 80
18 | COc1ccnc(C(=O)N[C@H]2COC[C@H](OCC(C)C)[C@@H](Oc3ccccc3)[C@H](C)OC2=O)c1OCOC(C)=O [Compound 85] | 80 to 100 | 80 to 100 | 80 to 100 | 80 to 100 | 80 to 100 | 0 to 80 | 0 to 80
